Each structure is given as a SMILES string. Read-outs that look alike come from different tables or passages of the source.

The target of assay [1] is BRD4 (BD1+BD2) bromodomain (Homo sapiens (Human), UniProt O60885). Put plainly: BRD4 binding inhibition (AlphaScreen, GST-BRD4 vs tetraacetylated histone H4 peptide). In outline:
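GST-BRD4 (BD1+BD2) and biotinylated tetraacetyl-histone H4 peptide, each at 100 nM in HEPES pH 7.4 buffer with BSA and DTT, were combined with compound. Glutathione acceptor and streptavidin donor beads were added, then incubated 30 min at room temperature in the dark. Read-out was AlphaScreen signal.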
A general note: Alpha assays give light when donor and acceptor beads are brought close together.

Assay [2] has as its system thymus cancer cells (Ty-82 cells). Briefly: Cytotoxicity to thymus cancer cells (Ty-82 cells), WST-1. The settings on record: Homo sapiens, TY82, 72 h.
Method: The following experiment was performed to evaluate the cytotoxicity of [1,2,4]triazolo[4,3-a]quinoxaline derivative according to the present invention to thymus cancer cells (Ty-82 cells).
First, thymus cancer cells (Ty-82 cells) were distributed in a 96 well plate at the density of 2.5×10^4 cells/well. 24 hours later, the plated cells were treated with the compounds of the present invention dissolved in DMSO at the different concentrations ranging from 0.01 μM to 10 μM. 72 hours later, the activities of the compounds were determined using WST-1 reagent.
Assay [3] has as its system acute myelogenous leukemia cells (MV-4-11 cells). Briefly: Cytotoxicity to acute myelogenous leukemia cells (MV-4-11 cells), CCK-8. The following applies: Homo sapiens, MV4-11, 72 h.
Setting [4] is: GST-BRD4 (BD1+BD2) / biotinylated acetyl-histone H4 (Lys5,8,12,16) peptide, read-out: IC50, BRD4 binding inhibition.
Setting [5] is: GST-BRD4 (BD1+BD2) vs biotinylated acetyl-histone H4 peptide, AlphaScreen, read-out: BRD4 IC50.
Setting [6] is: read-out: Ty-82 Cytotoxicity IC50.
Setting [7] is: read-out: IC50, cytotoxicity against thymus cancer cells.
[8] abbreviates: read-out: MV-4-11 Cytotoxicity IC50.

What is called IC50 is the concentration that inhibits the measured activity by half. Consider `Cc1nnc2c(NCCCCNC(=O)C(C)(C)C)nc3ccccc3n12` [Example 3, 2,2-dimethyl-N-[4-(1-methyl-[1,2,4]triazolo[4,3-a]quinoxaline-4-ylamino)-butyl]-propionamide], for which the results for the IC50 in assay [1] (setting [4]), in assay [1] (setting [5]) and in assay [2] (setting [6]) were ≤ 50 nM, 28 nM and 920 nM, respectively.
With `Cc1nnc2c(NCCCCNC(=O)c3ccccc3)nc3cc(NC(=O)C(C)C)ccc3n12` [Example 248, N-[4-(7-isobutyramido-1-methyl-[1,2,4]triazolo[4,3-a]quinoxaline-4-ylamino)-butyl]-benzamide], the IC50 in assay [1] (setting [5]) is 54 nM; in assay [2] (setting [6]), 510 nM.
Consider `Cc1nnc2c(NCCCCNC(=O)OC(C)(C)C)nc3cc(NC(=O)C(C)C)ccc3n12` [Example 246, [4-(7-isobutyramido-1-methyl-[1,2,4]triazolo[4,3-a]quinoxaline-4-ylamino)-butyl]-carbamic acid-tert-butylester], for which the IC50 in assay [1] (setting [4]) is ≤ 50 nM; in assay [1] (setting [5]), 23 nM; in assay [2] (setting [7]), ≤ 500 nM; in assay [2] (setting [6]) it was 490 nM.
In the case of `COc1cccc2c1nc(NCCCCNC(=O)OCC(C)C)c1nnc(C)n12` [Example 120, N-[4-(6-methoxy-1-methyl-[1,2,4]triazolo[4,3-a]quinoxaline-4-ylamino)-butyl]-carbamic acid isobutylester], the IC50 in assay [1] (setting [4]) is ≤ 50 nM; in assay [1] (setting [5]) it was 34 nM; in assay [2] (setting [6]), 620 nM.
In the case of `Cc1nnc2c(NCCCCNC(=O)c3ccccc3)nc3cc(C(=O)NC(C)C)ccc3n12` [Example 205, 4-(4-benzoylamino-butylamino)-1-methyl-[1,2,4]triazolo[4,3-a]quinoxaline-7-carboxylic acid isopropylamide], the IC50 in assay [1] (setting [5]) was determined as 75 nM; in assay [2] (setting [6]), 550 nM.
Turning to `CC(=O)Nc1ccc2c(c1)nc(NCCCCNC(=O)C(C)(C)C)c1nnc(C)n12` [Example 250, N-[4-(7-acetylamino-methyl-[1,2,4]triazolo[4,3-a]quinoxaline-4-ylamino)-butyl]-2,2-dimethyl-propionamide], the IC50 in assay [1] (setting [4]) is ≤ 50 nM; in assay [2] (setting [7]) it was ≤ 500 nM; in assay [2] (setting [6]), 300 nM.
Consider `COc1c(C)ccc2c1nc(NCCCCNC(=O)OC(C)C)c1nnc(C)n12` [Example 133, [4-(6-methoxy-1,7-dimethyl-[1,2,4]triazolo[4,3-a]quinoxaline-4-ylamino)-butyl]-carbamic acid isopropylester], for which the IC50 was ≤ 50 nM in assay [1] (setting [4]), 34 nM in assay [1] (setting [5]) and 880 nM in assay [2] (setting [6]).
In the same order, the values of `Cc1nnc2c(NCCCCNC(=O)OC(C)(C)C)nc3cc(C(=O)NC(C)C)ccc3n12` [Example 202, [4-(7-isopropylcarbamoyl-1-methyl-[1,2,4]triazolo[4,3-a]quinoxaline-4-ylamino)-butyl]-carbamic acid-tert-butylester] are ≤ 50 nM, 44 nM and 640 nM.
Consider `COc1ccc2nc(NCCCCNC(=O)c3ccc(C)nc3Cl)c3nnc(C)n3c2c1` [Example 129], for which the results for the IC50 in assay [1] (setting [4]), in assay [1] (setting [5]) and in assay [2] (setting [6]) were ≤ 50 nM, 17 nM and 830 nM, respectively.
The like results for `COc1ccc2nc(NCCCCNC(=O)c3ccccc3)c3nnc(C)n3c2c1` [Example 127, N-[4-(8-methoxy-1-methyl-[1,2,4]triazolo[4,3-a]quinoxaline-4-ylamino)-butyl]-benzamide] were, in that order, ≤ 50 nM, 46 nM and 620 nM.
With `Cc1nnc2c(NCCCCNC(=O)OC(C)(C)C)nc3cc(C(=O)Nc4ccccc4)ccc3n12` [Example 212, [4-(1-methyl-7-phenylcarbamoyl-[1,2,4]triazolo[4,3-a]quinoxaline-4-ylamino)-butyl]-carbamic acid-tert-butylester], the values for the IC50 in assay [1] (setting [4]), in assay [1] (setting [5]) and in assay [2] (setting [6]) were ≤ 50 nM, 35 nM and 840 nM, respectively.
Regarding `Cc1nnc2c(NCCCCNC(=O)CC(C)C)nc3ccccc3n12` [Example 7, 3-methyl-N-[4-(1-methyl-[1,2,4]triazolo[4,3-a]quinoxaline-4-ylamino)-butyl]-butyramide], the IC50 in assay [1] (setting [4]) is ≤ 50 nM; in assay [1] (setting [5]), 20 nM; in assay [2] (setting [7]) it was ≤ 500 nM; in assay [2] (setting [6]), 260 nM.
Consider `COCCOc1cc2nc(NCCCCNC(=O)c3ccccc3Cl)c3nnc(C)n3c2cc1OCCOC` [Example 171, N-{4-[7,8-bis-(2-methoxy-ethoxy)-1-methyl-[1,2,4]triazolo[4,3-a]quinoxaline-4-ylamino]-butyl}-2-chloro-benzamide], for which the IC50 was ≤ 50 nM in assay [1] (setting [4]), 26 nM in assay [1] (setting [5]) and 580 nM in assay [2] (setting [6]).
Take `COc1cc2nc(NCCCCNC(=O)OC(C)(C)C)c3nnc(C)n3c2cc1C` [Example 464, [4-(7-methoxy-1,8-dimethyl-[1,2,4]triazolo[4,3-a]quinoxaline-4-ylamino)-butyl]-carbamic acid-tert-butylester]: the IC50 in assay [1] (setting [5]) was 61 nM; in assay [2] (setting [6]), 790 nM.
As to `Cc1nnc2c(NCCCCNC(=O)OC(C)C)nc3ccccc3n12` [Example 4, [4-(1-methyl-[1,2,4]triazolo[4,3-a]quinoxaline-4-ylamino)-butyl]-carbamic acid isopropylester], the half-inhibitory concentration (IC50) in assay [1] (setting [4]) is ≤ 50 nM; in assay [2] (setting [6]), 650 nM.
In the same order, the values of `CC(=O)Nc1ccc2c(c1)nc(NCCCCNC(=O)c1ccccc1)c1nnc(C)n12` [Example 251, N-[4-(7-acetylamino-methyl-[1,2,4]triazolo[4,3-a]quinoxaline-4-ylamino)-butyl]-benzamide] are ≤ 50 nM and 680 nM.
For `Cc1nnc2c(NCCCCNC(=O)CC(C)(C)C)nc3ccccc3n12` [Example 8, 3,3-dimethyl-N-[4-(1-methyl-[1,2,4]triazolo[4,3-a]quinoxaline-4-ylamino)-butyl]-butyramide], the IC50 was ≤ 50 nM in assay [1] (setting [4]), 24 nM in assay [1] (setting [5]) and 860 nM in assay [2] (setting [6]).
For `Cc1nnc2c(NCCCCC(=O)NCC(C)C)nc3ccccc3n12` [Example 660, 5-(1-methyl-[1,2,4]triazolo[4,3-a]quinoxaline-4-ylamino)-pentanoic acid isobutylamide], the IC50 in assay [1] (setting [4]) is ≤ 50 nM; in assay [1] (setting [5]), 36 nM; in assay [2] (setting [6]) it was 840 nM.
Regarding `CC(=O)Nc1ccc2c(c1)nc(NCCCCNC(=O)OC(C)(C)C)c1nnc(C)n12` [Example 249, [4-(7-acetylamino-methyl-[1,2,4]triazolo[4,3-a]quinoxaline-4-ylamino)-butyl]-carbamic acid-tert-butylester], the IC50 in assay [1] (setting [4]) was ≤ 50 nM; in assay [2] (setting [7]) it was ≤ 500 nM; in assay [2] (setting [6]), 400 nM.
Take `Cc1nnc2c(NCCCCNC(=O)OC(C)(C)C)nc3cc(C(=O)NCc4ccccc4)ccc3n12` [Example 210, [4-(7-benzylcarbamoyl-1-methyl-[1,2,4]triazolo[4,3-a]quinoxaline-4-ylamino)-butyl]-carbamic acid-tert-butylester]: the IC50 in assay [1] (setting [4]) is ≤ 50 nM; in assay [1] (setting [5]), 18 nM; in assay [2] (setting [6]), 760 nM.
For `Cc1nnc2c(NCCCCNC(=O)C(C)(C)C)nc3cc(NC(=O)C(C)C)ccc3n12` [Example 247, N-[4-(7-isobutyramido-1-methyl-[1,2,4]triazolo[4,3-a]quinoxaline-4-ylamino)-butyl]-2,2-dimethyl-propionamide], the IC50 in assay [1] (setting [4]) is ≤ 50 nM; in assay [1] (setting [5]) it was 31 nM; in assay [2] (setting [7]), ≤ 500 nM; in assay [2] (setting [6]) it was 400 nM.
`COC(=O)c1ccc2c(c1)nc(NCCCCNC(=O)OC(C)(C)C)c1nnc(C)n12` [Example 197, 4-(4-tert-butoxycarbamoylamino-butylamino)-1-methyl-[1,2,4]triazolo[4,3-a]quinoxaline-7-carboxylic acid methylester]: the IC50 was ≤ 50 nM in assay [1] (setting [4]), 28 nM in assay [1] (setting [5]) and 650 nM in assay [2] (setting [6]).
With `COc1cc2nc(NCCCCNC(=O)C=C(C)C)c3nnc(C)n3c2cc1OC` [Example 71, 3-methyl-butene-2-oic acid-[4-(7,8-dimethoxy-1-methyl-[1,2,4]triazolo[4,3-a]quinoxaline-4-ylamino)-butyl]-amide], the IC50 in assay [3] (read-out: IC50, cytotoxicity against acute myelogenous leukemia cells) was ≤ 200 nM; in assay [3] (setting [8]), 110 nM; in assay [1] (setting [4]), ≤ 50 nM; in assay [1] (setting [5]), 18 nM.
`Cc1nnc2c(NCCCCNC(=O)c3ccccc3Cl)nc3ccccc3n12` [Example 12]: the IC50 is 58 nM in assay [1] (setting [5]) and 850 nM in assay [2] (setting [6]).
The like results for `COc1cc2nc(NCCCCNC(=O)c3ccc([N+](=O)[O-])cc3)c3nnc(C)n3c2cc1OC` [Example 101, N-[4-(7,8-dimethoxy-1-methyl-[1,2,4]triazolo[4,3-a]quinoxaline-4-ylamino)-butyl]-4-nitro-benzamide] were, in that order, 51 nM and 880 nM.
As for `Cc1nnc2c(NCCCCNC(=O)C(C)(C)C)nc3cc(OCCN4CCOCC4)ccc3n12` [Example 433, 2,2-dimethyl-N-{4-[1-methyl-7-(2-morpholine-4-yl-ethoxy)-[1,2,4]triazolo[4,3-a]quinoxaline-4-ylamino]-butyl}-propionamide], the IC50 worked out at 340 nM in assay [3] (setting [8]) and 61 nM in assay [1] (setting [5]).
In the same order, the values of `Cc1nnc2c(NCCCCNC(=O)CC(C)C)nc3cc([N+](=O)[O-])ccc3n12` [Example 244] are 260 nM and 89 nM.

Values taken from patent publication US11028090B2 (Dong Wha Pharm. Co., Ltd., priority 2017, dated 2021).
